Reference: patent US10065990B2, “Cyclic peptide compound, and preparation method, pharmaceutical composition and use thereof” (HANGZHOU GUANYU BIO-MEDICAL CO., LTD, priority 2013, dated 2018)
Where two headings read alike, the source gives them in different places.

How the values were obtained:
[1] = tested on: lncap (prostate cancer cells); assay: MTT cancer cell growth inhibition; format: cell-based; conditions: Homo sapiens, LNCaP, 72 h, MTT, 72 hours incubation, read-out: GI50 lnca
Method in brief: (§1)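 Cells seeded at 1500/well in DMEM or RPMI 1640 with 10% FBS, incubated overnight, then exposed to compound at 10^−5 to 10^−10 M final in triplicate for 72 h at 37° C, 5% CO2. MTT added for 4 h, formazan dissolved in DMSO, absorbance read at 570 nm; GI50 derived from viability.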

[2] = tested on: SGC-7901 (human gastric cancer cells); assay: MTT cancer cell growth inhibition; format: cell-based; conditions: Homo sapiens, SGC-7901, 72 h, MTT, 72 hours incubation, SGC-7901 cells; read-out: GI50 SGC-7901
Method in brief: as §1

[3] = tested on: HT1080 (human fibrosarcoma cells); assay: MTT cancer cell growth inhibition; format: cell-based; conditions: Homo sapiens, HT-1080, 72 h, MTT, 72 hours incubation, read-out: GI50 HT1
Method in brief: as §1

[4] = tested on: KBM-5 (human chronic myelogenous leukemia); assay: MTT cancer cell growth inhibition; format: cell-based; conditions: Homo sapiens, KBM5, 72 h, MTT, 72 hours incubation, KBM-5 cells; read-out: GI50 KBM-5
Method in brief: as §1

[5] = tested on: Hela (human cervical cancer cells); assay: MTT cancer cell growth inhibition; format: cell-based; conditions: Homo sapiens, HeLa, 72 h, MTT, 72 hours incubation, read-out: GI50 Hela
Method in brief: as §1

[6] = tested on: MDA-MB-231 (breast cancer cells); assay: MTT cancer cell growth inhibition; format: cell-based; conditions: Homo sapiens, MDA-MB-231, 72 h, read-out: GI50 MDA-MB-231, MTT, 72 hours incubation, MDA-MB-231 cells
Method in brief: as §1

[7] = tested on: MCF-7 (human breast cancer cells); assay: MTT cancer cell growth inhibition; format: cell-based; conditions: Homo sapiens, MCF7, 72 h, 72 hours incubation, read-out: GI50 MCF
Method in brief: as §1

[8] = tested on: Huh-7 (human hepatoma cells); assay: MTT cancer cell growth inhibition; format: cell-based; conditions: Homo sapiens, Huh-7, 72 h, MTT, 72 hours incubation, Huh-7 cells; read-out: GI50 Huh-7
Method in brief: as §1

[9] = tested on: KBM5-T315I (human chronic myelogenous leukemia); assay: MTT cancer cell growth inhibition; format: cell-based; conditions: Homo sapiens, 72 h, MTT, 72 hours incubation, KBM5-T315I cells; read-out: GI50 KBM5-T315I
Method in brief: as §1

[10] = tested on: PANC-1 (Pac-1, human pancreatic cancer cells); assay: MTT cancer cell growth inhibition; format: cell-based; conditions: Homo sapiens, PANC-1, 72 h, MTT, 72 hours incubation, read-out: GI50 PAN
Method in brief: as §1

[11] = tested on: U937 (human leukemia cells); assay: MTT cancer cell growth inhibition; format: cell-based; conditions: Homo sapiens, U-937, 72 h, MTT, 72 hours incubation, read-out: GI50 U93
Method in brief: as §1

[12] = tested on: A549 (human lung cancer cells); assay: MTT cancer cell growth inhibition; format: cell-based; conditions: Homo sapiens, A549, 72 h, MTT, 72 hours incubation, read-out: GI50 A54
Method in brief: as §1

[13] = tested on: N-87 (human gastric cancer cells); assay: MTT cancer cell growth inhibition; format: cell-based; conditions: Homo sapiens, 72 h, MTT, 72 hours incubation, N-87 cells; read-out: GI50 N-87
Method in brief: as §1

[14] = tested on: HCC827 (human non-small cell lung cancer cells); assay: MTT cancer cell growth inhibition; format: cell-based; conditions: Homo sapiens, HCC827, 72 h, MTT, 72 hours incubation, HCC827 cells; read-out: GI50 HCC827
Method in brief: as §1

[15] = tested on: K562 (human leukemia cells); assay: MTT cancer cell growth inhibition; format: cell-based; conditions: Homo sapiens, K562, 72 h, MTT, 72 hours incubation, K562 cells; read-out: GI50 K562
Method in brief: as §1

[16] = tested on: BGC-823 (human gastric cancer cells); assay: MTT cancer cell growth inhibition; format: cell-based; conditions: Homo sapiens, BGC-823, 72 h, MTT, 72 hours incubation, read-out: GI50 BG
Method in brief: as §1

[17] = tested on: H1975 (non-small cell lung adenocarcinoma); assay: MTT cancer cell growth inhibition; format: cell-based; conditions: Homo sapiens, NCI-H1975, 72 h, MTT, 72 hours incubation, H1975 cells; read-out: GI50 H1975
Method in brief: as §1

[18] = tested on: MOLT-4 (human acute lymphoblastic leukemia cells); assay: MTT cancer cell growth inhibition; format: cell-based; conditions: Homo sapiens, MOLT-4, 72 h, MTT, 72 hours incubation, read-out: GI50 Mol
Method in brief: as §1

[19] = tested on: Bel-7402 (human hepatoma cells); assay: MTT cancer cell growth inhibition; format: cell-based; conditions: Homo sapiens, Bel-7402, 72 h, MTT, 72 hours incubation, Bel-7402 cells; read-out: GI50 Bel-7402
Method in brief: as §1

[20] = tested on: DU145 (human prostate cancer cells); assay: MTT cancer cell growth inhibition; format: cell-based; conditions: Homo sapiens, DU-145, 72 h, MTT, 72 hours incubation, read-out: GI50 Du1
Method in brief: as §1

HDAC7 = target: T1, HDAC7 (Homo sapiens, UniProt Q8WUI4); assay: HDAC biochemical activity measurement (fluorescent substrate deacetylation);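 on all read-outs here: fluorogenic deacetylation assay using acetyl-lysine substrate at 20 µM, enzyme and compound incubated 30 min at 37 °C, then developer added, fluorescence read at 360/460 nm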; conditions: for IC50 HDAC7: 37° C. 30 minutes
T1 sequence (Q8WUI4 1-952): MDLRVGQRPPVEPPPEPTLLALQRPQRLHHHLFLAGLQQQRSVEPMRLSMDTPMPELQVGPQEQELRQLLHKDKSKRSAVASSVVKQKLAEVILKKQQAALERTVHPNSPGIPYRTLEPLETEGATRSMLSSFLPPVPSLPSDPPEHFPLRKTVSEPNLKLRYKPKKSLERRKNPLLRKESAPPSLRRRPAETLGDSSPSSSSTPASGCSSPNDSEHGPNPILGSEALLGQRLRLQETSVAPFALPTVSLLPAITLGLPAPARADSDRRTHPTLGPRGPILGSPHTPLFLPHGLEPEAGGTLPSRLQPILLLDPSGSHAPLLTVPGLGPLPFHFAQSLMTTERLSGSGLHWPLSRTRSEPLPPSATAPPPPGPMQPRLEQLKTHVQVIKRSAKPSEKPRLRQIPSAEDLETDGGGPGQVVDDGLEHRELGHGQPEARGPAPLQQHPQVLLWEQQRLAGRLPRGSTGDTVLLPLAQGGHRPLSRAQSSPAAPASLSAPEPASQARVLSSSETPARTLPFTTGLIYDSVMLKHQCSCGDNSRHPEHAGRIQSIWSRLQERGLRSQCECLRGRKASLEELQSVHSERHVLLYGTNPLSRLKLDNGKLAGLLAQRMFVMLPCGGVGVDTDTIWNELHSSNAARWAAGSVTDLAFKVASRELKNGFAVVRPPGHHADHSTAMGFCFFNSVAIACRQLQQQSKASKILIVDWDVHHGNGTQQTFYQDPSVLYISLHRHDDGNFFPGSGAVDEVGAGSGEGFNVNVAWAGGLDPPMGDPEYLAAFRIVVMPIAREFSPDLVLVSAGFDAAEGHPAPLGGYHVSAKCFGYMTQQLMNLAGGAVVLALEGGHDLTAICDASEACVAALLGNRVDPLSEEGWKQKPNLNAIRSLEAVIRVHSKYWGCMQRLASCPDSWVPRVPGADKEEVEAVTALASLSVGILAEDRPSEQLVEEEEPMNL

| SMILES | GI50 [1] [nM] | GI50 [2] [nM] | GI50 [3] [nM] | GI50 [4] [nM] | GI50 [5] [nM] | GI50 [6] [nM] | GI50 [7] [nM] | GI50 [8] [nM] | GI50 [9] [nM] | GI50 [10] [nM] | GI50 [11] [nM] | GI50 [12] [nM] | GI50 [13] [nM] | GI50 [14] [nM] | GI50 [15] [nM] | GI50 [16] [nM] | GI50 [17] [nM] | GI50 [18] [nM] | GI50 [19] [nM] | IC50 HDAC7 (HDAC7) | also measured |
| --- | --- | --- | --- | --- | --- | --- | --- | --- | --- | --- | --- | --- | --- | --- | --- | --- | --- | --- | --- | --- | --- |
| CC(C)=C1NC(=O)c2nc(ccc2F)CNC(=O)C[C@@H](/C=C/CCS)OC(=O)[C@H](C(C)C)NC1=O [Compound 136] | 30 | 51 | 40 | 9 | 80 | 58 | 50 | 36 | 35 | 80 | 30 | 40 | 31 | 41 | 46 | 70 | 35 | 20 | 22 | no activity | GI50 [20]: 10 nM |
| C/C=C1\NC(=O)c2ccc(F)c(n2)CNC(=O)C[C@@H](/C=C/CCS)OC(=O)[C@H](CC)NC1=O [Compound 111] | 20 | 73 | 80 | 53 | 80 | 38 | 20 | 38 | 35 | 80 | 50 | 50 | 28 | 57 | 37 | 30 | 27 | 20 | 36 | no activity | GI50 [20]: 60 nM |
| C=C1NC(=O)c2nc(ccc2SC)CNC(=O)C[C@@H](/C=C/CCSC(C)=O)OC(=O)[C@H](C)NC1=O [Compound 210] |  | 105 |  | 52 |  | 72 |  | 22 | 49 |  |  |  | 27 | 56 | 86 |  | 25 |  | 47 | no activity | GI50 ([1]; lncap cells): 50 nM; GI50 ([3]; HT1080 cells): 20 nM; GI50 ([5]; Hela cells): 30 nM; GI50 ([7]; MCF-7 cells): 30 nM; GI50 ([10]; PANC-1 cells): 50 nM; GI50 ([11]; U937 cells): 20 nM; GI50 ([12]; A549 cells): 50 nM; GI50 ([16]; BGC-823 cells): 10 nM; GI50 ([18]; MOLT-4 cells): 50 nM; GI50 ([20]; DU145 cells): 30 nM |
| C/C=C1\NC(=O)c2nc(ccc2F)CNC(=O)C[C@@H](/C=C/CCSC(C)=O)OC(=O)[C@@H](C)NC1=O [Compound 100] | 30 | 57 | 90 | 35 | 70 | 78 | 20 | 27 | 31 | 90 | 60 | 50 | 32 | 17 | 34 | 20 | 53 | 30 | 71 | no activity | GI50 [20]: 20 nM |
| C/C=C1\NC(=O)c2nc(ccc2SCC)CNC(=O)C[C@@H](/C=C/CCSC(=O)CCCCCC)OC(=O)[C@H](C(C)C)NC1=O [Compound 250] |  | 63 |  | 53 |  | 21 |  | 27 | 79 |  |  |  | 43 | 45 | 27 |  | 38 |  | 58 |  | GI50 ([1]; lncap cells): 50 nM; GI50 ([3]; HT1080 cells): 60 nM; GI50 ([5]; Hela cells): 70 nM; GI50 ([7]; MCF-7 cells): 40 nM; GI50 ([10]; PANC-1 cells): 30 nM; GI50 ([11]; U937 cells): 80 nM; GI50 ([12]; A549 cells): 40 nM; GI50 ([16]; BGC-823 cells): 40 nM; GI50 ([18]; MOLT-4 cells): 30 nM; GI50 ([20]; DU145 cells): 50 nM; IC50 (μM) HDAC7 (HDAC7): no activity |
